In patent US20240207454A1, “NEURO-BEHAVIORAL ASSAY FOR PHYSIOLOGICAL EVALUATION OF WATER-SOLUBLE ANESTHETICS” (Northeastern University, priority 2022, published 2024):
Values joined by “and” are separate entries in the source; they are usually repeats but may differ in a detail not shown here. Equal entries are not always repeated. Where two headings read alike, the source gives them in different places.

Columns and labels:
[1] = test system: Apteronotus leptorhynchus; assay: Neuro-behavioral assay: chirps (EOD modulations); assay type: in vivo; conditions: for Number of chirps during the 30 min immediately following anesthesia (mean) / Number of chirps during the 30 min immediately following anesthesia (median) / Number of chirps during the 30 min immediately following anesthesia (range among fish): 2.5% urethane or 0.02% MS-222, n=8 fish
Text: Previous research has shown that transient modulations of the EOD may occur, both spontaneously and through stimulation with electric signal mimicking the EOD of a conspecific. These modulations are brief (several tens of milliseconds) and involve frequency increases. They are commonly referred to as ‘chirps.’
To identify chirp instances, the time-frequency data {(Tk, fk)}k=q^q+n^wind, q=1, . . . , M−nwind−1, was considered in a moving time window containing nwind+1 samples. The first and last nmed samples in each window are used to establish the instantaneous base frequency before chirping:
to the data set {(ξp,q, ϕp,q)}p=0^n^wind for each q=1, 2, . . . time window. This curve fitting was carried out over a fixed search range α∈[αmin, αmax] discretized evenly using nα+1 number points. For each q=1, 2, . . . time window, the coefficient of determination Rq,i^2 was computed for each point αi=αmin+i (αmax−αmin)/nα, i=0, . . . , nα of the discretized search range. Then, the fitted curve for each q=1, 2, . . . time window as Φ (ξ; ? ), with
Subsequently, using Algorithm 1, contiguous segments of successive windows are identified within qε and for each segment the time window q associated with the maximum ? value is reported together with the corresponding parameter ? and maximum frequency rise Δfq.
Nonlinear regression is performed on data points within these time windows using the three-parameter model Ψ(ξ; α, Δf, τ)=Δf Φ(ξ−τ; α) with initial parameters α= ? , Δf=Δfq, and τ=0. Finally,
as time instance, ? as maximum frequency rise and dchirp,q=ln(7+4√{square root over (3)})/αq is reported as duration of a chirp for each q reported time window with parameter estimates αq, ? , τq. Here the formula for chirp duration corresponds to the half prominence of Ψ(ξ; αq, ? , τq).
(§1) The experimental design is outlined in FIG. 2. To determine the baseline EOD frequency, the fish's EOD was recorded for 30 min. Then, the fish was transferred into a glass beaker containing either 2.5% urethane (Acros Organics, New Jersey, USA) or 0.02% MS-222 (Western Chemical, Washington, USA), each dissolved in water from the fish's isolation tank. As a control, the fish was moved into an identical glass beaker containing aquarium water only. The temperatures of the anesthetic solutions or the aquarium water in the beaker were similar (±1° C.) to the temperature of the water in the fish's isolation tank.
(§2) The fish was left in the anesthetic solution until both anal fin undulation and opercular movement ceased. It was then returned to its isolation tank where recording of the EOD continued for 180 min. For urethane anesthesia, treatment including transfer to and from the beaker took between 4-5 min. MS-222 anesthesia required longer exposure to the anesthetic so that the entire treatment lasted between 9-15 min. Control experiments were designed such that the handling of the fish and the time the fish spent outside its isolation tank were similar to the corresponding anesthesia experiments (urethane control: 5-8 min; MS-222 control: 7-10 min).
The method described in Eske et al. (2023) was employed for the detection of chirps. This method assumes that the frequency shape of chirps normalized by the peak frequency rise is described in time by function
where ξ is the time coordinate measured from the chirp's peak frequency and α is an unknown parameter identified by the chirp detection method (FIG. 2). This function closely matches the shape of type-2 chirps, and, though to a lesser extent, the shape of type-1 chirps. […]

[2] = test system: Apteronotus leptorhynchus; assay: Neuro-behavioral assay: locomotor activity and induction of anesthesia; assay type: in vivo; conditions: for Treatment time until anal fin undulation and opercular movement ceased, including transfer to and from the beaker: 2.5% urethane or 0.02% MS-222 immersion
Method: FIG. 30 Locomotor activity inferred from amplitude fluctuations of the EOD. After recording of the baseline EOD for 6 min, the fish was transferred to a 0.02% MS-222 solution in aquarium water for 5 min. After return of the fish to its home tank, the EOD recording continued for 15 min. To determine the locomotor activity index, positive and negative deviations from an arbitrarily set threshold value of the amplitude were determined every 1 sec, and the standard deviation of the absolute values of these amplitude deviations were calculated for 30-sec time windows. […] Recovery of the locomotor activity occurred within some 2 min after the fish was returned to its home tank (filled circles).
as §1, §2
To examine the effect of eugenol on EOD frequency and chirping behavior, the following experiments were conducted using 8 fish (FIG. 11): First, the baseline EOD was recorded in the fish's home tank (50 cm×30 cm×30 cm) for 30 min. Then, for the 5-min treatment session, the shelter tube with the fish was transferred to a smaller (experimental) tank (30 cm×20 cm×20 cm) containing either eugenol dissolved in aquarium water at a certain concentration (30 μL/L, 45 μL/L, or 60 μL/L; ‘test condition’) or aquarium water only (‘control condition’). The temperature in the experimental tank was similar to the temperature in the home tank (median difference: ±0.2° C.). Finally, the shelter tube with the fish was returned to the home tank, where recording continued for 180 min. Throughout the 215 min of pre-treatment, treatment, and post-treatment, the recording of the EOD was interrupted only for a few seconds during which the fish was transferred between its home tank and the experimental tank. The order of the four treatment conditions was determined using a randomized complete block design. Each test or control experiment in a given fish was conducted on a different day.
Most of the time, fish in the shelter tube maintained an upright position, with their longitudinal axis parallel to the walls of the tube. Forward and backward swimming occurred frequently and appeared to be mediated primarily by high-frequency undulations of the anal fin. Sporadically, the fish made 180° turns around its vertical axis.
Neuro-Behavioral Assay extended to the monitoring of locomotor activity. The electric organ discharge (EOD) that is recorded as the assayed behavior contains not only information about the frequency and possible modulations of the EOD (‘chirps’) but also about the locomotor activity of the fish. […]

GABAA current = conditions: rat trigeminal ganglia; cited from earlier work
[3] = test system: epileptiform field potentials and spreading depression; conditions: rat neocortical and hippocampal slices; cited from earlier work
zebrafish (Danio rerio) = conditions: 60 μL/L eugenol, D. rerio; cited from earlier work
red garra (Garra rufa) = conditions: G. rufa, cited from earlier work
[4] = PubChem; cited from earlier work
[5] = 0.02% MS-222, 5 min exposure (FIG. 30)

In the case of `CCOC(=O)c1cccc(N)c1` [MS-222, 3-aminobenzoic acid ethyl ester methanesulfonate], the “Time chirp rates remained elevated after anesthesia” value ([1]; 0.02% MS-222) was no more than 3 h, the “Number of chirps during the 30 min immediately following anesthesia (mean)” value [1] was 48 chirps and the “Number of chirps during the 30 min immediately following anesthesia (median)” value [1] was 30 chirps. For the same compound, the “Number of chirps during the 30 min immediately following anesthesia (range among fish)” value [1] was 1-156 chirps, the “Time from start of exposure until locomotor activity drops dramatically” value [2, 5] was no more than 2 min and the “Time to recovery of locomotor activity after return to home tank” value [2, 5] was no more than 2 min. For the same compound, the “Treatment time until anal fin undulation and opercular movement ceased, including transfer to and from the beaker” value [2] was 9 to 15 min.

For `C=CCc1ccc(O)c(OC)c1` [eugenol], the “Effect on GABA-induced current” value (GABAA current) is listed as “inhibits GABAA current in a reversible, dose-dependent manner”, the “Effect on epileptiform field potentials and spreading depression” value [3] is listed as “reversible and dose-dependent suppression” and the “Difference in increase in the number of chirps (30 min before vs 30 min after exposure): Median” value ([1]; eugenol 30 μL/L vs. Control) is listed as 97.5. The “Difference in increase in the number of chirps between pairs of eugenol concentrations: Median” value ([1]; eugenol 45 μL/L vs. 30 μL/L) was 8, the “Difference in increase in the number of chirps (30 min before vs 30 min after exposure): Median” value ([1]; eugenol 45 μL/L vs. Control) was 137 and the “Difference in increase in the number of chirps between pairs of eugenol concentrations: Median” value ([1]; eugenol 60 μL/L vs. 30 μL/L) was 60.5. The “Difference in increase in the number of chirps between pairs of eugenol concentrations: Median” value ([1]; eugenol 60 μL/L vs. 45 μL/L) was 23, the “Difference in increase in the number of chirps (30 min before vs 30 min after exposure): Median” value ([1]; eugenol 60 μL/L vs. Control) was 160 and the “Time to a similar stage of anesthesia” value (zebrafish (Danio rerio)) was no more than 1.5 min. For the same compound, the “Time to total loss of equilibrium and movement and absence of reaction to external stimuli” value (red garra (Garra rufa); 25 μL/L eugenol) was “approximately 3 min”, the “Time to total loss of equilibrium and movement and absence of reaction to external stimuli” value (red garra (Garra rufa); 50 μL/L eugenol) was roughly 1.5 min and the “Fish in which anal fin continued undulating throughout the 5-min exposure” value ([2]; 30 μL/L eugenol) was 3 out of 8. For the same compound, the “Time after which body movements ceased (mean)” value ([2]; 30 μL/L eugenol, 8 fish) was 1.8 min, the “Time after which body movements ceased (range)” value ([2]; 30 μL/L eugenol, 8 fish) was 1 to 3 min and the “Time after which anal fin undulation stopped” value ([2]; 30 μL/L eugenol, the 5 fish in which it stopped) was 1 to 3 min. For the same compound, the “Time to anesthesia (total loss of equilibrium and cessation of any movement, including anal fin undulation)” value ([2]; 45 μL/L and 60 μl/L eugenol) was 1 to 4 min, the “Fish in which anal fin continued undulating throughout the 5-min exposure” value ([2]; 45 μL/L eugenol) was 1 out of 8 and the “Time after which body movements ceased (mean)” value ([2]; 45 μL/L eugenol, 8 fish) was 1.4 min. The “Time after which body movements ceased (range)” value ([2]; 45 μL/L eugenol, 8 fish) was 1 to 2 min, the “Time after which anal fin ceased undulating” value ([2]; 45 μL/L eugenol, the 7 fish in which it ceased) was 1 to 3 min and the “Time after which body movements ceased (each fish)” value ([2]; 60 μL/L eugenol, 8 fish) was 1 min. The “octanol-water partition coefficient log kow” value [4] was 2.49.

With `CCOC(N)=O` [urethane] the “Number of chirps during the 30 min immediately following anesthesia (mean)” value [1] was 1852 chirps and 1500 chirps, the “Number of chirps during the 30 min immediately following anesthesia (median)” value [1] was 1541 chirps and the “Number of chirps during the 30 min immediately following anesthesia (range among fish)” value [1] was 568-4434 chirps. The “Time T to which type-2 chirping at higher rates persists after exposure” value ([1]; 2.5% urethane, single recording (FIG. 20)) was roughly 4600 s, the “Treatment time until anal fin undulation and opercular movement ceased, including transfer to and from the beaker” value [2] was 4 to 5 min and the “octanol-water partition coefficient log kow” value [4] was −0.15.
